Laboratory results reported in patent publication US11040035B2, “3-oxo-2,6-diphenyl-2,3-dihydropyridazine-4-carboxamides” (BAYER PHARMA AKTIENGESELLSCHAFT, priority 2016, dated 2021).
Read-outs that look alike come from different tables or passages of the source.

What was measured:
[1] = target: T1, AHR (Homo sapiens, UniProt P35869); assay: In vitro assay 1: antagonism in human cell line (transactivation assay, kynurenic acid prestimulated); details: Assay 1: AHR-luc Hum Antagonism IC50 [M], 150 μM kynurenic acid, 20 hours, firefly luciferase
T1 sequence (P35869 11-848): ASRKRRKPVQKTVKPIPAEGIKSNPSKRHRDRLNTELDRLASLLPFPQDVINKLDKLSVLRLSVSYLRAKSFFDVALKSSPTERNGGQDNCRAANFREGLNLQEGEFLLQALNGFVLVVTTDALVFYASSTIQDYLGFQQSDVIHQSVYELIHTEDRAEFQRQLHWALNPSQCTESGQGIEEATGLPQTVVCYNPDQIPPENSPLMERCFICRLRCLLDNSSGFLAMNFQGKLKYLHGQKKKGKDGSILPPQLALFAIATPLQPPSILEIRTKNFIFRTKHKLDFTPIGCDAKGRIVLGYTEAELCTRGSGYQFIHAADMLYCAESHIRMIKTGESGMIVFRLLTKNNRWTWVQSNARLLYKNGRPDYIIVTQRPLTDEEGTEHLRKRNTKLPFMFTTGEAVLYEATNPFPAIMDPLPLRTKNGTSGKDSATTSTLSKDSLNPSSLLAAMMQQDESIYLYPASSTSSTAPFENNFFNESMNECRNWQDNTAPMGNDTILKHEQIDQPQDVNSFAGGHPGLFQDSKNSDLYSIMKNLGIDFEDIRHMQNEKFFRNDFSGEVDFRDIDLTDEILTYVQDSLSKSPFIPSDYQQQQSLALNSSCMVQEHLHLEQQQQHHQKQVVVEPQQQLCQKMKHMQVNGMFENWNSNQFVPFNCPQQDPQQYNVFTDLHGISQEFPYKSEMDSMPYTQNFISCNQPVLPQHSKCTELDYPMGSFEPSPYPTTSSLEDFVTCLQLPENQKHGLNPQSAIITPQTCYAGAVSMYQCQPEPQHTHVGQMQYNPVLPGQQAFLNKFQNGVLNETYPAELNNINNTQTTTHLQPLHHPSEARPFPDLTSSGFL

[2] = system: AHR-regulated gene CYP1A1; assay: In vitro assay 3: AHR-regulated CYP1A1 expression in human cell line (U937, qPCR)
[3] = target: T1, AHR; assay: In vitro assay 2: agonism in human cell line (transactivation assay)
[4] = Homo sapiens, U-937, 6 h, read-out: Assay 3: Hum CYP1A1 Antagonism IC50 [M], U937 cells, 200 μM KA, 6 hours, qPCR
[5] = Assay 2: AHR-luc Hum Agonism IC50 [M], no kynurenic acid, 20 hours, firefly luciferase
[6] = read-out: Assay 3: Hum CYP1A1 Antagonism IC50, U937 cells, 200 μM KA, 6 hours, qPCR
[7] = read-out: Assay 2: AHR-luc Hum Agonism IC50, no kynurenic acid, 20 hours, firefly luciferase

Row | IC50 [1] [M] | IC50 [2, 4] [M] | IC50 [3, 5] [M] | IC50 [2, 6] [M] | IC50 [3, 7] [M] | SMILES
1 | 1.76e-08 | 1.83e-08 | > 2e-05 |  |  | COc1ccc(-c2cc(C(=O)N[C@@H]3CCCC[C@@H]3O)c(=O)n(-c3cccc(F)c3)n2)cc1 (single isomer, unassigned) [Example 107, 2-(3-Fluorophenyl)-N-(cis-2-hydroxycyclohexyl)-6-(4-methoxyphenyl)-3-oxo-2,3-dihydropyridazine-4-carboxamide]
2 | 3.25e-08 | 3.13e-08 | > 2e-05 |  |  | O=C(N[C@H]1CCCC[C@@H]1O)c1cc(-c2ccc(Cl)cc2)nn(-c2cccc(F)c2)c1=O (single isomer, unassigned) [Example 118, 6-(4-chlorophenyl)-2-(3-fluorophenyl)-N-(trans-2-hydroxycyclohexyl)-3-oxo-2,3-dihydropyridazine-4-carboxamide]
3 | 3.01e-08 | 3.71e-08 | > 2e-05 |  |  | COC[C@@H](CO)NC(=O)c1cc(-c2ccc(C(F)(F)F)cc2)nn(-c2cccc(F)c2)c1=O [Example 258, (−)-2-(3-Fluorophenyl)-N-[(2R)-1-hydroxy-3-methoxypropan-2-yl]-3-oxo-6-[4-(trifluoromethyl)phenyl]-2,3-dihydropyridazine-4-carboxamide]
4 | 1.11e-08 | 1.35e-08 | > 2e-05 |  |  | O=C(NC(CO)C(F)(F)F)c1cc(-c2ccc(OC(F)(F)F)cc2)nn(-c2cccc(F)c2)c1=O (stereo not drawn) [Example 169, 2-(3-Fluorophenyl)-3-oxo-N-(1,1,1-trifluoro-3-hydroxypropan-2-yl)-6-[4-(trifluoromethoxy)phenyl]-2,3-dihydropyridazine-4-carboxamide]
5 | 1.86e-07 | 2e-06 | > 2e-05 |  |  | O=C(NCCCO)c1cc(-c2ccc(Cl)cc2)nn(-c2cccc(F)c2)c1=O [Example 189, 6-(4-Chlorophenyl)-2-(3-fluorophenyl)-N-(3-hydroxypropyl)-3-oxo-2,3-dihydropyridazine-4-carboxamide]
6 | 1.02e-07 | 1.1e-07 | > 2e-05 |  |  | O=C(NC1(CO)CC1)c1cc(-c2ccc(Cl)cc2)nn(-c2cccc(F)c2)c1=O [Example 187, 6-(4-Chlorophenyl)-2-(3-fluorophenyl)-N-[1-(hydroxymethyl)cyclopropyl]-3-oxo-2,3-dihydropyridazine-4-carboxamide]
7 | 1.18e-08 | 1.22e-08 | > 2e-05 |  |  | CC(C)[C@@H](CO)NC(=O)c1cc(-c2ccc(Cl)cc2)nn(-c2cccc(F)c2)c1=O [Example 20, 6-(4-Chlorophenyl)-2-(3-fluorophenyl)-N-[(2S)-1-hydroxy-3-methylbutan-2-yl]-3-oxo-2,3-dihydropyridazine-4-carboxamide]
8 | 4.87e-08 | 9.14e-08 | > 2e-05 |  |  | O=C(NCC(O)C(F)F)c1cc(-c2ccc(Cl)cc2)nn(-c2cccc(F)c2)c1=O (single isomer, unassigned; (-)) [Example 222, (−)-6-(4-Chlorophenyl)-N-(3,3-difluoro-2-hydroxypropyl)-2-(3-fluorophenyl)-3-oxo-2,3-dihydropyridazine-4-carboxamide]
9 | 4.69e-08 | 8.26e-08 | > 2e-05 |  |  | CC(O)C(C)NC(=O)c1cc(-c2ccc(Cl)cc2)nn(-c2cccc(F)c2)c1=O (stereo not drawn) [Example 131, 6-(4-Chlorophenyl)-2-(3-fluorophenyl)-N-(3-hydroxybutan-2-yl]-3-oxo-2,3-dihydropyridazine-4-carboxamide]
10 | 4.16e-09 | 1.15e-09 | > 2e-05 |  |  | Cc1ccc(-c2cc(C(=O)N[C@H](CO)C(C)C)c(=O)n(-c3cc(F)cc(F)c3)n2)cc1 [Example 51, 2-(3,5-Difluorophenyl)-N-[(2S)-1-hydroxy-3-methylbutan-2-yl]-6-(4-methylphenyl)-3-oxo-2,3-dihydropyridazine-4-carboxamide]
11 | 1.58e-08 |  |  | 5.4e-08 | > 2e-05 | O=C(N[C@@H]1COC[C@@H]1O)c1cc(-c2ccc(C(F)(F)F)cc2)nn(-c2cccc(F)c2)c1=O (single isomer, unassigned) [Example 345, (−)-2-(3-fluorophenyl)-N-(cis-4-hydroxytetrahydrofuran-3-yl)-3-oxo-6-[4-(trifluoromethyl)phenyl]-2,3-dihydropyridazine-4-carboxamide]
12 | 2.06e-08 |  | > 2e-05 | 3.01e-08 |  | CC(NC(=O)c1cc(-c2ccc(C(F)(F)F)cc2)nn(-c2cccc(F)c2)c1=O)C(O)C(F)(F)F (single isomer, unassigned) [Example 271, Isomer no. 4 of 2-(3-fluorophenyl)-3-oxo-N-(4,4,4-trifluoro-3-hydroxybutan-2-yl)-6-[4-(trifluoromethyl)phenyl]-2,3-dihydropyridazine-4-carboxamide]
13 | 2.8e-08 | 3.22e-08 | > 2e-05 |  |  | C[C@@H](CO)CNC(=O)c1cc(-c2ccc(C(F)(F)F)cc2)nn(-c2cccc(F)c2)c1=O (single isomer, unassigned) [Example 329]
14 | 3.08e-08 | 2.52e-08 | > 2e-05 |  |  | C[C@@H](CO)NC(=O)c1cc(-c2ccc(Cl)cc2)nn(-c2cc(F)cc(F)c2)c1=O [Example 47, 6-(4-Chlorophenyl)-2-(3,5-difluorophenyl)-N-[(2S)-1-hydroxypropan-2-yl]-3-oxo-2,3-dihydropyridazine-4-carboxamide]
15 | 3.6e-08 | 2.37e-08 | > 2e-05 |  |  | CC(C)(C)[C@@H](CO)NC(=O)c1cc(-c2ccc(Cl)cc2)nn(-c2cccc(F)c2)c1=O [Example 272, 6-(4-Chlorophenyl)-2-(3-fluorophenyl)-N-[(2S)-1-hydroxy-3,3-dimethylbutan-2-yl]-3-oxo-2,3-dihydropyridazine-4-carboxamide]
16 | 5.51e-08 | 9.15e-08 | > 2e-05 |  |  | O=C(NC(CO)CCO)c1cc(-c2ccc(C(F)(F)F)cc2)nn(-c2cccc(F)c2)c1=O (racemic) [Example 262, N-[(2RS)-1,4-Dihydroxybutan-2-yl]-2-(3-fluorophenyl)-3-oxo-6-[4-(trifluoromethyl)phenyl]-2,3-dihydropyridazine-4-carboxamide]
17 | 6.88e-08 | 1.51e-07 |  |  | > 2e-05 | CC(NC(=O)c1cc(-c2ccc(Cl)cc2)nn(-c2cccc(F)c2)c1=O)C(O)C(F)(F)F (stereo not drawn) [Example 218, Stereoisomer no. 1 of 6-(4-chlorophenyl)-2-(3-fluorophenyl)-3-oxo-N-(4,4,4-trifluoro-3-hydroxybutan-2-yl)-2,3-dihydropyridazine-4-carboxamide]
18 | 3.31e-08 | 9.1e-08 | > 2e-05 |  |  | C[C@@H](CO)NC(=O)c1cc(-c2ccc(OC(F)(F)F)cc2)nn(-c2cccc(F)c2)c1=O [Example 173, 2-(3-Fluorophenyl)-N-[(2S)-1-hydroxypropan-2-yl]-3-oxo-6-[4-(trifluoromethoxy)phenyl]-2,3-dihydropyridazine-4-carboxamide]
19 | 1.1e-08 |  | > 2e-05 | 3.01e-08 |  | CC(CCO)NC(=O)c1cc(-c2ccc(C(F)(F)F)cc2)nn(-c2cccc(F)c2)c1=O (single isomer, unassigned; (+)) [Example 254, (+)-2-(3-Fluorophenyl)-N-(4-hydroxybutan-2-yl)-3-oxo-6-[4-(trifluoromethyl)phenyl]-2,3-dihydropyridazine-4-carboxamide]
20 | 6.12e-09 |  | > 2e-05 | 5.44e-09 |  | CC(NC(=O)c1cc(-c2ccc(C(F)(F)F)cc2)nn(-c2cccc(F)c2)c1=O)C(O)C(F)(F)F (single isomer, unassigned) [Example 270, Isomer no. 3 of 2-(3-fluorophenyl)-3-oxo-N-(4,4,4-trifluoro-3-hydroxybutan-2-yl)-6-[4-(trifluoromethyl)phenyl]-2,3-dihydropyridazine-4-carboxamide]
21 | 1.19e-08 | 1.42e-08 | > 2e-05 |  |  | O=C(NC(CO)C(F)(F)F)c1cc(-c2ccc(OC(F)(F)F)cc2)nn(-c2cccc(F)c2)c1=O (single isomer, unassigned) [Example 170, 2-(3-Fluorophenyl)-3-oxo-N-(1,1,1-trifluoro-3-hydroxypropan-2-yl)-6-[4-(trifluoromethoxy)phenyl]-2,3-dihydropyridazine-4-carboxamide]
